pKi: −log10 of the molar value.
Columns and labels:
[1] = biological target: T1, Gonadotropin-releasing hormone receptor (Homo sapiens, UniProt P30968); test: Inhibition of GnRH receptor
T1 sequence (P30968 whole entry): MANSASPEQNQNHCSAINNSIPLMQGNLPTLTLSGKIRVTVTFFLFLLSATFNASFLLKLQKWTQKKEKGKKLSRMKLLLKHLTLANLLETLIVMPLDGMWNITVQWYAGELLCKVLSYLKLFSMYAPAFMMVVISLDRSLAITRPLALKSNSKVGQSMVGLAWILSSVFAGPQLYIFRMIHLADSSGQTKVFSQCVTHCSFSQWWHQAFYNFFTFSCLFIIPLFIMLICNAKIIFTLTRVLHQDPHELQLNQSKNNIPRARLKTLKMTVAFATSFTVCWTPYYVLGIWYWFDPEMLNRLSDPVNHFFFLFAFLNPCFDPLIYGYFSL

[2] = biological target: T2, Gonadotropin-releasing hormone receptor (Homo sapiens) (UniProt P30968); test: Inhibition of GnRH receptor at 10 uM
T2 sequence (whole entry): T1 sequence (P30968 whole entry)

Structure (SMILES)	pKi [1]	inhibition [2] [%]
Cc1ccc(CN2CCc3c(c(=O)n(CC4CCNCC4)c(=O)n3Cc3c(F)cccc3F)C2)c(C)c1	5.72	72
CC(C)CN(C)CCn1c(=O)c2c(n(Cc3c(F)cccc3F)c1=O)CCN(Cc1ccc(OC(F)(F)F)cc1)C2	5.60	73
Cc1ccc(CN2CCc3c(c(=O)n(CC4NCCc5ccccc54)c(=O)n3Cc3c(F)cccc3F)C2)c(C)c1 (stereo not drawn)	6.96	95
CC(C)CN(C)CCn1c(=O)c2c(n(CCOc3ccccc3)c1=O)CCN(CCCC(F)(F)F)C2	–	0
NC(CC1CCCCC1)Cn1c(=O)c2c(n(Cc3c(F)cccc3F)c1=O)CCN(Cc1ccc(Cl)cc1)C2 (stereo not drawn)	5.49	66
CCOC(=O)c1cn(Cc2c(F)cccc2F)c2cc(-c3ccc(NC(=O)CC)cc3)c(CN(C)Cc3ccccc3)cc2c1=O	7.30	–
CC(CCN1CCc2c(c(=O)n(CCN3CCCCC3)c(=O)n2Cc2c(F)cccc2F)C1)CC(C)(C)C (stereo not drawn)	5.36	50
O=c1c2c(n(Cc3c(F)cccc3F)c(=O)n1CCN1CCc3ccccc3C1)CCN(CC1CCCC1)C2	–	16

The remaining compounds from weak to strong by pKi [1], led by results:

pKi [1]	inhibition [2] [%]	Structure (SMILES)
7.30	100	CNC(Cn1c(=O)c2c(n(Cc3c(F)cccc3F)c1=O)CCN(Cc1ccc(C)cc1C)C2)c1ccccc1 (stereo not drawn)
7.68	–	COc1ccc(CN2CC3CC(c4ccc(N(C)C)c5ccccc45)N4C(=O)N(CCN5CCOCC5)C(=O)C34C2)cc1NC(C)=O (stereo not drawn)
8.22	–	COc1cccc(-c2c(C)n(Cc3c(F)cccc3F)c(=O)n(CC(C)NCc3nccs3)c2=O)c1F (stereo not drawn)
9.15	–	Cc1cc(C)cc(-c2[nH]c3ccc(C(C)(C)C(=O)N4C5CCC4CC5)cc3c2C(C)CNCCCCc2ccnnc2)c1 (stereo not drawn)

Reference: ChEMBL document CHEMBL1144672, “The use of ligand-based de novo design for scaffold hopping and sidechain optimization: two case studies” (Bioorg Med Chem, 2008)
